“Also recorded” adds a separate entry of the source.
Assays:
leptin = assay: Serum leptin ELISA in HFD-fed mice; format: in vivo, mouse; conditions: ELISA (FIG. 7E)
Source text: (§1) Five-week-old male, C57Bl/6J mice (12-18 per group, Jackson Laboratory, Bar Harbor, Me.) were fed ad libitum with a modified high fat or control diet (Bioserv, Frenchtown, N.J.) for 15 weeks. […] We had verified the efficacy of this diet to induce obesity and NAFLD in various pilot studies. At the end of the 15-week long feeding regimen, this diet caused substantial ALT elevation—indicative of liver injury—in these mice.
(§2) After 15 weeks on the modified HFD, the mice were put on a Compound 13-3 (or control vehicle) dosing regimen, in which the introductory 5 mg/kg (p.o., t.i.w. for the first 3 weeks) dose was followed by the administration of 10 mg/kg (p.o., t.i.w. for additional 5 weeks) therapeutic dose. During the course of the drug treatment, the animals were monitored daily for changes in body weight, food/water intake, and adverse effects.
A suppressive effect of exogenous FGF21 on circulating leptin levels has been previously observed in non-human primates. Accordingly, we also measured serum leptin levels using a commercially available ELISA kit.

FGF21 [1] = assay: Hepatic gene expression by quantitative real-time PCR in HFD-fed mice; format: in vivo, mouse; conditions: HFD-fed mice (FIG. 7C)
Source text: as §1, §2
(§3) To study the effect of Compound 13-3 on the mediators of fatty acid metabolism, we employed quantitative real-time PCR using commercially available probes to assess mediators of fatty acid metabolism in HFD-fed mice treated with Compound 13-3. As shown in FIGS. 7A-7E, gene expression of some key mediators of fatty acid oxidation such as CPT1a (FIG. 7A), an enzyme that catalyzes the rate-limiting step of fatty acid oxidation in the mitochondrion, of peroxisomal ACOX1 (FIG. 7B) and of FGF21 (FIG. 7C), a recently described hepatokine with pronounced anti-NAFLD and hepatoprotective efficacy (see, Maratos-Flier E Exp Cell Res (2017) 360(1): 2-5; Sonoda J, et al. Horm Mol Biol Clin Investig (2017) 30(2); Xu J, et al. Diabetes (2009) 58(1):250-259; Li H, et al. Diabetes (2012) 61(4): 797-806; Desai B N, et al. Mot Metab (2017) 6(11):1395-1406), were increased by Compound 13-3 treatment in HFD-fed mice. Many of the beneficial metabolic effects are linked to FGF21, and FGF21 itself may further enhance fatty acid oxidation (Xu J, et al. Diabetes (2009) 58(1):250-259; Li H, et al. Diabetes (2012) 61(4):797-806). We, therefore, also measured serum levels of FGF21 using a commercially available ELISA kit.

CPT1a = assay: as above; format: in vivo, mouse; conditions: HFD-fed mice (FIG. 7A)
Source text: as §1, §2, §3

ACOX1 = assay: as above; format: in vivo, mouse; conditions: HFD-fed mice (FIG. 7B)
Source text: as §1, §2, §3

HFD-fed mice [2] = assay: High-fat diet (HFD)-induced obesity/NAFLD mouse model: body weight, food/water intake, liver size and weight; format: in vivo
Source text: (§4) In order to assess the in vivo efficacy of Compound 13-3 in improving obesity, and ameliorating NAFLD/NASH, a previously used modified high-fat diet (HFD) was employed to induce obesity and severe fatty liver disease in mice (Derdak et al. Journal of Hepatology 2013; 58(4):785-91).
as §1, §2

HFD-fed mice [3] = assay: HFD-induced NAFLD mouse model: liver histology (H&E, Masson's trichrome, PAS) and NAFLD Activity Score; format: in vivo
Source text: as §4, §1, §2
The pronounced efficacy of Compound 13-3 in improving NAFLD was further supported by microscopical analysis of the harvested liver samples (FIG. 4).
Microscopic evaluation of hematoxylin-eosin (H&E) stained liver slides was performed by an expert pathologist to determine the effect of the drug treatment on the NAFLD Activity Score (NAS), as a primary read-out for the anti-NAFLD efficacy of Compound 13-3. The composite NAS score is frequently used to describe the severity of the characteristic pathological changes seen in NAFLD/NASH (Kleiner D E et al. Hepatology. 2005; 41(6):1313-21), including steatosis, lobular inflammation (FIG. 5A), and hepatocellular ballooning (FIG. 5B).

PPAR-γ [4] = assay: Hepatic gene expression in HFD-fed mice; format: in vivo, mouse; conditions: HFD-fed mice (FIG. 8A)
Source text: as §1, §2
(§5) FGF21 has also been linked to the suppression of adipogenesis by suppressing hepatic PPAR-γ, FABP4 and CD36 (Xu J, et al. Diabetes (2009) 58(1):250-259). In view of this, we next assessed the expression of these mediators of adipogenesis in the livers of Compound 13-3-treated, HFD-fed mice.

FABP4 = assay: Hepatic gene expression in HFD-fed mice; format: in vivo, mouse; conditions: HFD-fed mice liver (FIG. 8C)
Source text: as §1, §2, §5

CD36 = assay: Hepatic gene expression in HFD-fed mice; format: in vivo, mouse; conditions: HFD-fed mice liver (FIG. 8D)
Source text: as §1, §2, §5

FGF21 [5] = assay: Serum FGF21 ELISA in HFD-fed mice; format: in vivo, mouse; conditions: ELISA (FIG. 7D)
Source text: as §1, §2
To study the effect of Compound 13-3 on the mediators of fatty acid metabolism, we employed quantitative real-time PCR using commercially available probes to assess mediators of fatty acid metabolism in HFD-fed mice treated with Compound 13-3. […] We, therefore, also measured serum levels of FGF21 using a commercially available ELISA kit.

HFD-fed mice [6] = assay: HFD-induced NAFLD mouse model: hepatic triglyceride biochemical assay; format: in vivo; conditions: HFD-fed mice liver (FIG. 6A)
Source text: as §1, §2
(§6) This biochemical change is very important, as ectopic fat accumulation has been linked to lipotoxicity and hepatocellular injury. The extent of liver injury has been characterized by measuring serum levels of two liver enzymes ALT (FIG. 6B) and AST (FIG. 6C) (UMASS Mouse Phenotyping Center Analytical Core, Worcester, Mass.) at the time of euthanasia.

human HepG2 liver cells = assay: Intracellular triglyceride content in palmitoleic acid-treated HepG2 cells (biochemical kit); format: cell-based; conditions: HepG2, 1.6 mM palmitoleic acid in EMEM, 48 hours, 0.1 μM compound vs DMSO (FIG. 1A)
Procedure: A series of in vitro experiments were first carried out with various human hepatocyte cultures. For example, human HepG2 liver cells were incubated with 1.6 mM palmitoleic acid in EMEM medium for 48 hours in the presence of 0.1 μM Compound 13-3 or control vehicle, DMSO. After 48 hours, cells were collected and the intracellular triglyceride content was measured by a biochemical kit (Biovision, Mountain View, Calif.) as described in Derdak et al. J Hepatol. 2013; 58(4):785-91.

HFD-fed mice [7] = assay: HFD-induced NAFLD mouse model: serum ALT and AST levels; format: in vivo
Source text: as §1, §2, §6

PPAR-γ [8] = assay: Hepatic protein expression by Western-blotting and densitometry in HFD-fed mice; format: in vivo, mouse; conditions: Western-blotting and densitometry (FIG. 8B)
Source text: as §1, §2, §5

collagen type I, alpha 1 = assay: Hepatic gene expression by quantitative real-time PCR in HFD-fed mice; format: in vivo, mouse; conditions: HFD-fed mice liver, quantitative real-time PCR (FIG. 5D)
Source text: as §1, §2
Therefore, pharmaceutical compositions based on Compound 13-3 and other compounds of the invention will likely provide a viable treatment of NAFLD and especially NASH.

CCN(CC)CCNC(=O)c1c(C)[nH]c(/C=C2\C(=O)Nc3ccc(-c4csc(-c5ccccc5)n4)cc32)c1C [Compound 13-3]
serum leptin level (HFD-induced increase) (leptin): significantly decreased | FGF21 gene expression (FGF21 [1]): pronounced elevation | CPT1a gene expression (CPT1a): increased | ACOX1 gene expression (ACOX1): increased | change in body weight during treatment (HFD-fed mice [2]; HFD-fed C57Bl/6J mice, 5 mg/kg p.o. t.i.w. 3 weeks then 10 mg/kg p.o. t.i.w. 5 weeks (FIG. 2A)): not only prevented additional weight gain in the mice on HFD, but also triggered a gradual weight loss | food intake (HFD-fed mice [2]; HFD-fed mice, 5 mg/kg then 10 mg/kg p.o. t.i.w. (FIG. 2C)): not linked to decreased food intake | water intake (HFD-fed mice [2]; HFD-fed mice, 5 mg/kg then 10 mg/kg p.o. t.i.w. (FIG. 2D)): not linked to decreased food intake or water intake | size of the liver (macroscopic overview at euthanasia) (HFD-fed mice [2]; HFD-fed mice, 5 mg/kg then 10 mg/kg p.o. t.i.w., vs vehicle (FIG. 2E, 3A)): markedly decreased the size of the liver; also recorded: essentially comparable to the lean animals | macroscopic appearance of the liver (HFD-fed mice [2]; HFD-fed mice, vs vehicle (pale yellow enlarged liver) (FIG. 2E)): healthier, darker brown appearance | fatty metamorphosis / ectopic fat accumulation in the liver (HFD-fed mice [2]; HFD-fed mice, vs vehicle-treated littermates (FIG. 3A-3C)): markedly decreased or prevented ectopic fat accumulation | liver weight (HFD-fed mice [2]; HFD-fed mice, vs vehicle-treated littermates, at euthanasia (FIG. 3A, 3B)): profoundly decrease liver weight | HFD-induced steatosis and lobular inflammation (NAS components) (HFD-fed mice [3]; HFD-fed mice (FIG. 5A)): suppressed | HFD-induced hepatocellular ballooning (NAS component) (HFD-fed mice [3]; HFD-fed mice (FIG. 5B)): eliminated | hepatic glycogen depletion (Periodic Acid Schiff staining) (HFD-fed mice [3]; HFD-fed mice, vehicle group depleted in zones 2 & 3 (FIG. 4 bottom row)): evidence for hepatic depletion of glycogen was not present | fibrosis (Masson's trichrome staining) (HFD-fed mice [3]; HFD-fed mice, vehicle group showed stage 1 fibrosis (FIG. 4 middle row)): did not exhibit any signs of fibrosis | H&E histology: disorganized liver architecture, micro- and macrovesicular steatosis, hepatocyte ballooning and inflammation (HFD-fed mice [3]; HFD-fed mice, vs vehicle (FIG. 4 top row)): markedly suppressed | NAFLD Activity Score (NAS) (HFD-fed mice [3]; HFD-fed mice, vs vehicle-treated littermates (FIG. 5C)): substantially lower | PPAR-γ gene expression in the liver (PPAR-γ [4]): suppressed | FABP4 gene expression (FABP4): decreased | CD36 gene expression (CD36): decreased | serum FGF21 level (FGF21 [5]): increased | hepatic triglyceride content (HFD-fed mice [6]): prevented the HFD-induced steatosis | palmitoleic acid-induced increase of intracellular triglyceride content (human HepG2 liver cells): markedly suppressed | serum ALT (HFD-fed mice [7]; at euthanasia (FIG. 6B)): suppresses ALT elevation | serum AST (HFD-fed mice [7]; at euthanasia (FIG. 6C)): not affected | serum AST:ALT ratio (HFD-fed mice [7]; vs vehicle (FIG. 6D)): largely prevent the drastic decrease | PPAR-γ protein expression in the liver (PPAR-γ [8]): suppressed | hepatic production (gene expression) of collagen type I, alpha 1 (collagen type I, alpha 1): marked decrease

Reference: patent US12318381B2, “Treatment for non-alcoholic fatty liver disease” (1GLOBE BIOMEDICAL CO., LTD., priority 2018, dated 2025)
